Experimental data published in PMC5655689, “Therapeutic potential of the phosphino Cu(I) complex (HydroCuP) in the treatment of solid tumors” (Scientific Reports, 2017).

Experiments:
[1] = Tissue distribution of copper in LLC-bearing mice (GF-AAS); format: in vivo, mouse; conditions: single i.p. 50 mg/kg on day 10, 24 h
Procedure: To better understand the pharmacology and toxicology of the novel copper(I) complex, tissue samples, collected from LCC-bearing C57BL mice were analysed. […] On day 10 after tumor implantation, mice were treated with a single i.p. injection of 50 mg/kg of HydroCuP. After 24 hours, animals were sacrificed and copper content was quantified by graphite furnace atomic absorption spectroscopy (GF-AAS) analysis in several organs and normalized to control mice tissues. The solid tumor mass presented the highest copper concentration (at least 1.4 times higher than that detected in spleen), followed by spleen, kidney, liver and stomach.
Figure 3 Tissue distribution in LLC bearing C57BL mice. C57BL mice were inoculated i.m. on the right flank with LLC cells (2 × 10^6). After 10 days, HydroCuP was administered i.p. at a dose of 50 mg/kg. The mice were sacrificed after 24 hours and tumor, brain, spleen, kidney, intestine, liver and stomach were excised. Tissues were washed in ice-cold saline and weighed after removing excess fluid. All samples were mineralized in HNO3 and Cu content in each sample was measured by GF-AAS.
C57BL mice were inoculated […]. on the right flank with LLC cells (2 × 10^6). […] All samples were mineralized in HNO3 and Cu content in each sample was measured by GF-AAS (Graphite Furnace Atomic Absorption Spectroscopy).

[2] = Nephrotoxicity: urinary biomarkers (uTP, NAG) in Sprague Dawley rats; format: in vivo, rat; conditions: single i.p. HydroCuP 50 mg/kg vs CDDP 1.5 mg/kg
Procedure: Figure 5 Neurotoxicity studies. […] Bar: 500 µm. […] Nephrotoxicity studies. […] Error bars indicate the S.D. The potential nephrotoxic effect of HydroCuP was evaluated by measuring some specific biomarkers in urines obtained from 8-week-old male Sprague Dawley rats treated with a single i.p. injection of HydroCuP and CDDP. Urines of the treated animals were collected after 24, 72 and 120 h, and urinary total protein (uTP) and N-acetyl-β-D-glucosaminidase (NAG) were evaluated as signs of nephrotoxicity. […] On the contrary, treatment with HydroCuP determined a 24 h excretion of uTP roughly 12 times lower than that recorded with CDDP (Fig. 5, panel D). Following 120 h, the levels of uTP excreted by HydroCuP were 11 times lower compared with the reference metallodrug. Eight-week-old male Sprague Dawley rats were randomly allocated to five groups (five animals per group) and treated with a single i.p. injection of HydroCuP (50 mg/kg) or the vehicle solution (0.2 mL saline solution, control). Cisplatin (1.5 mg/kg,) was also used under the same experimental conditions for comparison purposes. […] Later, urines were centrifuged (150 g for 10 minutes at room temperature) to discard debris and aliquoted to measure creatinine, uTP and NAG. Urine creatinine assays were performed using creatinine assay kit from Sigma Chemical Co. (St. Louis, MO). uTPs were measured by means of BioRad Total Protein Test (Hercules, CA). Urinary NAG was measured spectrophotometrically with the NAG kit (Roche diagnostics, Basel, Switzerland) according to the manufacturer’s protocols. uTP and NAG are expressed as grams per millimoles of creatinine (g mmol^−1 creatinine).

[3] = tested on: p-PERK and p-IRE1 (UPR pathway); assay: IHC analysis of p-PERK and p-IRE1 in LLC tumor samples; format: in vivo, mouse; conditions: later-stage regimen
Excerpt: In order to investigate the in vivo activation of the UPR induced by HydroCuP, the levels of the phospho-PERK (p-PERK) and phospho-IRE1 (p-IRE1) were detected in tumor samples derived from treated LCC-bearing mice (following later-stage regimen). […] In control samples, p-PERK staining was found moderate in cytoplasm (in about 40% cell population) and intense in perinuclear-ER (about 5% of cell population). […] With regard to the […], p-IRE1, control tumors were weakly positive in cytoplasm (in about 15% cell population).
Figure 6 IHC analysis of p-PERK and p-IRE1 expression in LLC tumor samples. (A) Pictures show representative patterns of p-PERK and p-IRE1 expression by IHC in control LLC tumor samples (a and c) and in HydroCuP-treated tumor samples (b and d); magnification: ×10. (B) p-PERK (a) and p-IRE1 (b) values, evaluated in LLC tumor sections. The quantification of IHC images was performed by using Image J software. Columns indicate quantitative analysis in n = 3 different tumors per group; *P < 0.05.
To evaluate p-PERK and p-IRE1 expression, five-micron-thick formalin-fixed, paraffin-embedded (FFPE) tumor samples of LLC models (3 tumors/group, 3 sections/tumor and 3 images/sections) were stained by IHC using anti-human p-PERK (Thr981, Santa Cruz) or p-IRE1 (Ser724, Abcam) primary antibodies according to the manufacturer’s instructions. IHC was performed using a Leica Bond III Autostainer (Leica). Antigen retrieval was performed in citrate buffer for 15 min. Sections were counter-stained with Mayer’s haematoxylin. IHC results were evaluated by one experienced pathologist with no prior knowledge of experimental data. The quantification of IHC images was performed by using Image J software.

[4] = tested on: LoVo colorectal oxaliplatin-resistant xenograft; assay: In vivo activity toward LoVo-OXP (OXP-resistant) tumor xenograft in BALB/c nu/nu mice; conditions: 30 mg/kg daily i.p. from day 14, day 30
Procedure: To this aim, we developed the OXP-sensitive and OXP-resistant LoVo xenografts in BALB/c nu/nu mice. […] OXP-sensitive or OXP-resistant LoVo cells (1 × 10^7) were injected in the flank of mice. Once tumor was established (tumor volumes of about 0.4 cm^3, around 14 days after tumor inoculation), mice were randomly divided into six groups (6 animals per group, 8 controls). The HydroCuP-treated groups (6 mice each group) received daily 30 mg/kg by i.p. injection and the OXP-treated group was given 2 mg/kg by i.p. injection. At day 30, animals were sacrificed, and the inhibition of tumor growth was determined (Fig. 4, panel A). Measurements of body weights were recorded from day 14 every 2 days until the experimental endpoint (Fig. 4, panel B).
(A) LoVo and LoVo-OXP tumor xenografts in 6-week-old BALB/c nu/nu mice by injecting 1 × 10^7 tumor cells subcutaneously on the left dorsal flank. After 24 h from tumor implantation, mice randomly divided into six groups (6 animals per group). Chemotherapy delayed until day 14 (tumor volumes of about 0.4 cm^3). From day 14, HydroCuP dosed daily at 30 mg/kg i.p., OXP dosed daily at 2 mg/kg i.p. At day 30, animals sacrificed, and the inhibition of tumor growth determined by comparing the volume of the control group and the treatment group expressed as percentage referred to the control animals. Error bars indicate the S.D. *p < 0.05, **p < 0.01, with respect to control. […] Body weight was measured every two days and was taken as a parameter of systemic toxicity. The error bars indicate the S.D. **P < 0.01; *P < 0.05.
LoVo and LoVo-OXP tumor xenografts were established in 6-week-old BALB/c nu/nu mice by injecting 1 × 10^7 tumor cells subcutaneously (100 μL in serum free medium) on the left dorsal flank. After 24 h from tumor implantation, mice were randomly divided into six groups (6 animals per group, 8 controls). Chemotherapy was delayed until the tumor was about 0.4 cm^3 (day 14). From day 14, HydroCuP was dosed daily at 30 mg/kg i.p. whereas OXP was dosed daily at 2 mg/kg i.p. Measurements of body weights and tumor volumes were recorded from day 14 every 2 days until the experimental endpoint. The long axis (L) and the short axis (S) were measured with callipers, and the tumor volume (V) was calculated using the following equation: V = SxSxL/2. At day 30, animals were sacrificed, and the inhibition of tumor growth was determined by comparing the volume of the control group and the treatment group expressed as percentage referred to the control animals.

SMILES: F[P-](F)(F)(F)(F)F.OC[P+](CO)(CO)[Cu-3]([P+](CO)(CO)CO)([P+](CO)(CO)CO)[P+](CO)(CO)CO [HydroCuP, [Cu(thp)4][PF6]]
- Copper content in brain with respect to control animals [1]: no enhance in copper content was detectable in brain
- Copper concentration in tumor mass, times higher than in spleen ([1]; normalized to control mice tissues): at least 1.4
- NAG activity, times lower than CDDP ([2]; urine 24, 72, 120 h): up to 12
- 24 h excretion of uTP, times lower than CDDP ([2]; urine 24 h): roughly 12
- uTP excreted, times lower than CDDP ([2]; urine 120 h): 11
- Cytoplasmic p-PERK positivity vs control [3]: no difference in cytoplasmic p-PERK positivity
- Perinuclear-ER p-PERK staining ([3]; control about 5% of cell population): about 30%
- Cytoplasmic p-IRE1 positivity (cell population) ([3]; control about 15% cell population): about 35%
- Inhibition of tumor growth (decrease in final tumor volume) [4]: about 65%
